Test results taken from patent publication US9776995B2, “Bicyclic sulfonamide compounds as sodium channel inhibitors” (AMGEN INC., priority 2013, dated 2017).
Read-outs that look alike come from different tables or passages of the source. One block for each molecule: values may come before it.

Key:
[1] = target: Nav 1.7 (Homo sapiens (Human), UniProt Q15858); test: in-vitro Nav 1.7 PX data; assay type: cell-based
[2] = target: Nav 1.5 (Homo sapiens (Human), UniProt Q14524); test: in-vitro Nav 1.5 PX data; conditions: read-out: Nav 1.5 PX IC50
Sequence of Nav 1.5 (Q14524 whole entry): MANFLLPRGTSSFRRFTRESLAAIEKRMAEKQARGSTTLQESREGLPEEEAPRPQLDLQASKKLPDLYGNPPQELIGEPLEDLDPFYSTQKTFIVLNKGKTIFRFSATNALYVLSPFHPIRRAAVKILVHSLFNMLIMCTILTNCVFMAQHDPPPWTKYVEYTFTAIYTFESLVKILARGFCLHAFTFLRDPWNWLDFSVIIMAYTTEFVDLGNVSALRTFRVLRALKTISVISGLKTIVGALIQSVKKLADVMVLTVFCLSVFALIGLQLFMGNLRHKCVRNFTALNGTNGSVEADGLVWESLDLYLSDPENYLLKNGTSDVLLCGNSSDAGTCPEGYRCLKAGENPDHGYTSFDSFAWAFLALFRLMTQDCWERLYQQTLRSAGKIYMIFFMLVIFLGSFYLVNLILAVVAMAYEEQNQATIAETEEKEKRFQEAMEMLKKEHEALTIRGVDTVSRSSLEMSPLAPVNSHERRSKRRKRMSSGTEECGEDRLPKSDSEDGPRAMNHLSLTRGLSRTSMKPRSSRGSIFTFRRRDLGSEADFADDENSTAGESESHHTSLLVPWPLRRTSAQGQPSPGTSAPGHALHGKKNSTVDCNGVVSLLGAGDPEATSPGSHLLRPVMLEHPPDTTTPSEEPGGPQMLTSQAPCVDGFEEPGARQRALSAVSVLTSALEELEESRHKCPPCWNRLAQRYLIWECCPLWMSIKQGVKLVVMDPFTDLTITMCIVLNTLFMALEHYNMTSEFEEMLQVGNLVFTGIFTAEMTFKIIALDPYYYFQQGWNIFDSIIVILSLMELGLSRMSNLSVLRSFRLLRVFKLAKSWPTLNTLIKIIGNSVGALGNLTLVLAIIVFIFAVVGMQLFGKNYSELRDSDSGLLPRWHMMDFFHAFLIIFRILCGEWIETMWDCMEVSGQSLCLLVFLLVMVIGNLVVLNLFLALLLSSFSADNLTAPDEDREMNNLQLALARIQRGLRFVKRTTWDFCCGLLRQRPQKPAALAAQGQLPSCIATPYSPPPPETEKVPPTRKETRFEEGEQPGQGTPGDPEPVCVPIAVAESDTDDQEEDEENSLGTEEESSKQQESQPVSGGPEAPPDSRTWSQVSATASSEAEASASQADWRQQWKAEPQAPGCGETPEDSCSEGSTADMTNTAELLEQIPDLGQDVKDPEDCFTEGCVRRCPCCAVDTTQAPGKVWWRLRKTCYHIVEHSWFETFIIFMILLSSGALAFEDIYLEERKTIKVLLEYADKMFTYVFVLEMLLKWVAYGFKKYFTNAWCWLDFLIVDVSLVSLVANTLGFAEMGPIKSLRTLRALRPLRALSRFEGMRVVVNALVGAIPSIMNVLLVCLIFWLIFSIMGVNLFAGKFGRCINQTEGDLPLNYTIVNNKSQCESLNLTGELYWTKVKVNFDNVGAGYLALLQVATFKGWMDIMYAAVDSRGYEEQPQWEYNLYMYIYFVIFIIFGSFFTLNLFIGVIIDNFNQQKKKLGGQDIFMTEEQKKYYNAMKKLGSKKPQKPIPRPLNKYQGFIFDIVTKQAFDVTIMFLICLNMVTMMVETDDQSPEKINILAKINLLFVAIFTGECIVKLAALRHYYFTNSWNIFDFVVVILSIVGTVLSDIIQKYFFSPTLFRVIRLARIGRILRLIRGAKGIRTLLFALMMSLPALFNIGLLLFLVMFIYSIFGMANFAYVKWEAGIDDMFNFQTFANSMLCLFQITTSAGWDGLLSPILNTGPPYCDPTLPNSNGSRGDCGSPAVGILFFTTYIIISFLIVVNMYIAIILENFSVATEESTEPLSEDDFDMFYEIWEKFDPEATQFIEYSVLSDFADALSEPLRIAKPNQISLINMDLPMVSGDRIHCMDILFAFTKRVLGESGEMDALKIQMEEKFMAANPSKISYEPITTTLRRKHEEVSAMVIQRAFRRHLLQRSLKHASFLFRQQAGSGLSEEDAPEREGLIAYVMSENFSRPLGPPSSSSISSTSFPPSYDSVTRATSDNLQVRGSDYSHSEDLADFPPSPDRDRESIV

Sequence of Nav 1.7 (Q15858 whole entry): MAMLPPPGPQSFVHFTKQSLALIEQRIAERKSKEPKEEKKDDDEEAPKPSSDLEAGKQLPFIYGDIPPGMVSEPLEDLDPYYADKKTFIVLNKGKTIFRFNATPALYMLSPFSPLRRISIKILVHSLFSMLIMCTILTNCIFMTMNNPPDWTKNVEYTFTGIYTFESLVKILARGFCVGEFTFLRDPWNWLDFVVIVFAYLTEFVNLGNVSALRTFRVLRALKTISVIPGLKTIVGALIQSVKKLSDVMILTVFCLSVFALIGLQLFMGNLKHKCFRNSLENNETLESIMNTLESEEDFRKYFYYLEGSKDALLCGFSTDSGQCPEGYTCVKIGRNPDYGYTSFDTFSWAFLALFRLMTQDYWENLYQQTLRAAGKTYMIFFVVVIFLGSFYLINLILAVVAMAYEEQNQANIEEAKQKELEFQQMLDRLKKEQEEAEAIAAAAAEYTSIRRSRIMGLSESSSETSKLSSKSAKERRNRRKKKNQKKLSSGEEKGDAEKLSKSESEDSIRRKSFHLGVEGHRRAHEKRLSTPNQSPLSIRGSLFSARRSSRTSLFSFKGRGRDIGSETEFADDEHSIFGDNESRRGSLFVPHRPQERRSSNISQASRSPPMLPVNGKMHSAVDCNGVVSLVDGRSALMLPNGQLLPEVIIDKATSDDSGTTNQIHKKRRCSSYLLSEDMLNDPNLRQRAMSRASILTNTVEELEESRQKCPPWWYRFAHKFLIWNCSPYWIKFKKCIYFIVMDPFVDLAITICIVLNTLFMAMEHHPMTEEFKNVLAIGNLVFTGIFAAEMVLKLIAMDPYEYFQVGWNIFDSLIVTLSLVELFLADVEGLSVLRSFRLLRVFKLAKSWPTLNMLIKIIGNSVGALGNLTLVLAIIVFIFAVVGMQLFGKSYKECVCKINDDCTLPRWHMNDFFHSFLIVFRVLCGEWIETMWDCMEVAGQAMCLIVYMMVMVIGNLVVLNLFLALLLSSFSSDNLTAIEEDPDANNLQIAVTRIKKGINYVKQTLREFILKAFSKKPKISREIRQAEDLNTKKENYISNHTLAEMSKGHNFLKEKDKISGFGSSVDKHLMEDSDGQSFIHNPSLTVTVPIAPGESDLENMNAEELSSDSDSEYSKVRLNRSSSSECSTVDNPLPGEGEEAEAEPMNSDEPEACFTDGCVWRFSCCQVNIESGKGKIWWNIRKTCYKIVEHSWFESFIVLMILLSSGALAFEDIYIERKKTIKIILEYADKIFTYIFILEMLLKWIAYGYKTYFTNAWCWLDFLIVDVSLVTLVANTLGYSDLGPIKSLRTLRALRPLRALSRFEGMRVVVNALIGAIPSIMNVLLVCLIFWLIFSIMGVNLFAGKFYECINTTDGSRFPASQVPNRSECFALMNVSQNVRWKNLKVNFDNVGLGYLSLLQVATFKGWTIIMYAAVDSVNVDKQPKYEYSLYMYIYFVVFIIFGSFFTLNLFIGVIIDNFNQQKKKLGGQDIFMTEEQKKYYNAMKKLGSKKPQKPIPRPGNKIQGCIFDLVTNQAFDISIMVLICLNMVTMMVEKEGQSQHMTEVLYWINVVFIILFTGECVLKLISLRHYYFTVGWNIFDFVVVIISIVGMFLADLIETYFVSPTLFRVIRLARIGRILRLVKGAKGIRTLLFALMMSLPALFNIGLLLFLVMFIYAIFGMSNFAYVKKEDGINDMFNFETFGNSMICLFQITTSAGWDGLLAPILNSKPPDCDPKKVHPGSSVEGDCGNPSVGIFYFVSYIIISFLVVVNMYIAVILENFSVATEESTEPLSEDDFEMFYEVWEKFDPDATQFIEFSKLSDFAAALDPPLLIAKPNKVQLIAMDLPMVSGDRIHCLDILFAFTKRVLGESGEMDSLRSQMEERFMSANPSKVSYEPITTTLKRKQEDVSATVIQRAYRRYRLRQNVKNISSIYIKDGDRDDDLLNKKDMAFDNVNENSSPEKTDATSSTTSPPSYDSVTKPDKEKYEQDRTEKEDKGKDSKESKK

Molecule: COc1cc(-c2cc(F)cc(Cl)c2)c(C#N)cc1-c1nccc2cc(S(=O)(=O)Nc3ccon3)ccc12 [Example 86, 1-(3′-chloro-2-cyano-5′-fluoro-5-methoxy-4-biphenylyl)-N-3-isoxazolyl-6-isoquinolinesulfonamide]
- IC50 ([1]; PatchXpress (PX), in vitro): 24.4 nM
- IC50 ([2]; PatchXpress (PX), in vitro): > 10000 nM

Molecule: COc1cc(Cl)c(-c2cccc(F)c2)cc1-c1nccc2cc(S(=O)(=O)Nc3nncs3)ccc12 [Example 110, 1-(6-chloro-3′-fluoro-4-methoxy-3-biphenylyl)-N-1,3,4-thiadiazol-2-yl-6-isoquinolinesulfonamide]
- IC50 ([1]; in-vitro PX data): 109 nM
- IC50 ([2]; in-vitro PX data): > 10000 nM

Molecule: COc1cc(-c2cccc(F)c2)c(C#N)cc1-c1nccc2cc(S(=O)(=O)Nc3ccncn3)ccc12 [Example 144, 1-(2-cyano-3′-fluoro-5-methoxy-4-biphenylyl)-N-4-pyrimidinyl-6-isoquinolinesulfonamide]
- IC50 ([1]; in-vitro Nav 1.7 PX data): 106 nM
- IC50 ([2]; in-vitro Nav 1.5 PX data): > 10000 nM

Molecule: COc1cc(-c2cc(F)cc(F)c2)ccc1-c1nccc2cc(S(=O)(=O)Nc3ccon3)ccc12 [Example 142, 1-(3′,5′-difluoro-3-methoxy-4-biphenylyl)-N-3-isoxazolyl-6-isoquinolinesulfonamide]
- IC50 ([1]; in-vitro Nav 1.7 PX data): 168 nM
- IC50 ([2]; in-vitro Nav 1.5 PX data): > 30000 nM

Molecule: COc1cc(-c2cc(F)cc(F)c2)c(C#N)cc1-c1nccc2cc(S(=O)(=O)Nc3ccncn3)ccc12 [Example 28, 1-(2-CYANO-3′,5′-DIFLUORO-5-METHOXY-[1,1′-BIPHENYL]-4-YL)-N-(PYRIMIDIN-4-YL)ISOQUINOLINE-6-SULFONAMIDE]
- IC50 [1]: 144 nM
- IC50 ([2]; in-vitro Nav 1.5 PX data): > 10000 nM

Molecule: COc1cc(-c2ccccc2)ccc1-c1nccc2cc(S(=O)(=O)Nc3ccon3)ccc12 [Example 49, N-(ISOXAZOL-3-YL)-1-(3-METHOXY-[1,1′-BIPHENYL]-4-YL)ISOQUINOLINE-6-SULFONAMIDE]
- IC50 ([1]; PatchXpress (PX), in vitro): 311 nM
- IC50 ([2]; PatchXpress (PX), in vitro): > 10000 nM

Molecule: 1-(3′-chloro-2-cyano-5-methoxy-5′-methyl-4-biphenylyl)-N-1,3,4-thiadiazol-2-yl-6-isoquinolinesulfonamide [Example 225]
- IC50 ([1]; in-vitro PX): 11.1 nM
- IC50 ([2]; in-vitro PX): > 10000 nM

Molecule: Cc1ccc(OCc2ccccc2)cc1-c1nccc2cc(S(=O)(=O)Nc3ccncn3)ccc12 [Example 151, 1-(5-(benzyloxy)-2-methylphenyl)-N-4-pyrimidinyl-6-isoquinolinesulfonamide]
- IC50 ([1]; in-vitro Nav 1.7 PX data): 424 nM
- IC50 ([2]; in-vitro Nav 1.5 PX data): > 30000 nM

Molecule: 1-(2-chloro-3′-fluoro-5-methoxy-4-biphenylyl)-N-2-pyrimidinyl-6-isoquinolinesulfonamide [Example 108]
- IC50 ([1]; in-vitro PX data): 86.2 nM
- IC50 ([2]; in-vitro PX data): > 10000 nM

Molecule: COc1cc(Cl)c(-c2cccc(F)c2)cc1-c1nccc2cc(S(=O)(=O)Nc3ncccn3)ccc12 [Example 122, 1-(6-chloro-3′-fluoro-4-methoxy-3-biphenylyl)-N-2-pyrimidinyl-6-isoquinolinesulfonamide]
- IC50 ([1]; in-vitro PX data): 112 nM
- IC50 ([2]; in-vitro PX data): > 10000 nM

Molecule: COc1cc(-c2cccc(F)c2)ccc1-c1nccc2cc(S(=O)(=O)Nc3ncns3)c(F)cc12 [Example 44, 7-FLUORO-1-(3′-FLUORO-3-METHOXY-[1,1′-BIPHENYL]-4-YL)-N-(1,2,4-THIADIAZOL-5-YL)ISOQUINOLINE-6-SULFONAMIDE]
- IC50 [1]: 48.8 nM
- IC50 ([2]; PatchXpress (PX), in vitro): > 10000 nM

Molecule: COc1cc(-c2cc(F)cc(F)c2)ccc1-c1nccc2cc(S(=O)(=O)Nc3ncco3)ccc12 [Example 137, 1-(3′,5′-difluoro-3-methoxy-4-biphenylyl)-N-1,3-oxazol-2-yl-6-isoquinolinesulfonamide]
- IC50 ([1]; in-vitro PX data): 360 nM
- IC50 ([2]; in-vitro PX data): > 10000 nM

Molecule: COc1nc(NC2CCCCC2)ccc1-c1nccc2cc(S(=O)(=O)Nc3ccncn3)ccc12 [Example 73, 1-(6-(cyclohexylamino)-2-methoxy-3-pyridinyl)-N-4-pyrimidinyl-6-isoquinolinesulfonamide]
- IC50 ([1]; PatchXpress (PX), in vitro): 436 nM
- IC50 ([2]; PatchXpress (PX), in vitro): > 10000 nM

More lines, main results first:

- IC50 ([1]; in-vitro PX (PatchXpress) data): 197 nM
Molecule: COc1cc(Oc2ccc(F)c(F)c2)ccc1-c1nccc2cc(S(=O)(=O)Nc3ccncn3)ccc12 [Example 175, 1-(4-(3,4-difluorophenoxy)-2-methoxyphenyl)-N-4-pyrimidinyl-6-isoquinolinesulfonamide]
- IC50 ([2]; in-vitro PX (PatchXpress) data): > 10000 nM

- IC50 ([1]; in-vitro Nav 1.7 PX data): 19.4 nM
Molecule: COc1cc(-c2ccc(F)c(Cl)c2)c(C#N)cc1-c1nccc2cc(S(=O)(=O)Nc3ccncn3)ccc12 [Example 158, 1-(3′-chloro-2-cyano-4′-fluoro-5-methoxy-4-biphenylyl)-N-4-pyrimidinyl-6-isoquinolinesulfonamide]
- IC50 ([2]; in-vitro Nav 1.5 PX data): 5850 nM

- IC50 ([1]; in-vitro PX): 138 nM
Molecule: COc1cc(-c2cc(F)cc(F)c2)c(Cl)cc1-c1nn(C)c(=O)c2cc(S(=O)(=O)Nc3ccon3)ccc12 [Example 233, 1-(2-chloro-3′,5′-difluoro-5-methoxy-4-biphenylyl)-N-3-isoxazolyl-3-methyl-4-oxo-3,4-dihydro-6-phthalazinesulfonamide]
- IC50 ([2]; in-vitro PX): > 30000 nM

- IC50 ([1]; in-vitro PX (PatchXpress) data): 150 nM
Molecule: COc1cc(-c2ccc(F)cc2)c(C#N)cc1-c1nccc2cc(S(=O)(=O)Nc3ccncn3)ccc12 [Example 186, 1-(2-cyano-4′-fluoro-5-methoxy-4-biphenylyl)-N-4-pyrimidinyl-6-isoquinolinesulfonamide]
- IC50 ([2]; in-vitro PX (PatchXpress) data): > 10000 nM

- IC50 ([1]; in-vitro PX (PatchXpress) data): 77 nM
Molecule: COc1cc(Oc2cc(C)cc(F)c2)ccc1-c1nccc2cc(S(=O)(=O)Nc3ccncn3)ccc12 [Example 179, 1-(4-(3-fluoro-5-methylphenoxy)-2-methoxyphenyl)-N-4-pyrimidinyl-6-isoquinolinesulfonamide]
- IC50 ([2]; in-vitro PX (PatchXpress) data): > 10000 nM

- IC50 ([1]; in-vitro PX): 336 nM
Molecule: COc1nc(N2CCC(F)(F)C2)c(Cl)cc1-c1nccc2cc(S(=O)(=O)Nc3nncs3)ccc12 [Example 237, 1-(5-chloro-6-(3,3-difluoro-1-pyrrolidinyl)-2-methoxy-3-pyridinyl)-N-1,3,4-thiadiazol-2-yl-6-isoquinolinesulfonamide]
- IC50 ([2]; in-vitro PX): > 30000 nM

- IC50 ([1]; in-vitro PX): 82.3 nM
Molecule: COc1cc(-c2cccc(F)c2)c(Cl)cc1-c1nn(C)c(=O)c2cc(S(=O)(=O)Nc3nncs3)ccc12 [Example 215, 1-(2-chloro-3′-fluoro-5-methoxy-4-biphenylyl)-3-methyl-4-oxo-N-1,3,4-thiadiazol-2-yl-3,4-dihydro-6-phthalazinesulfonamide]
- IC50 ([2]; in-vitro PX): > 10000 nM

- IC50 ([1]; in-vitro PX): 144 nM
Molecule: N#CCOc1cc(-c2cccc(F)c2)ccc1-c1nccc2cc(S(=O)(=O)Nc3nncs3)ccc12 [Example 238, 1-(3-(cyanomethoxy)-3′-fluoro-4-biphenylyl)-N-1,3,4-thiadiazol-2-yl-6-isoquinolinesulfonamide]
- IC50 ([2]; in-vitro PX): > 10000 nM

- IC50 ([1]; in-vitro PX (PatchXpress) data): 99.3 nM
Molecule: COc1cc(Oc2ccc(C)c(F)c2)ccc1-c1nccc2cc(S(=O)(=O)Nc3ccncn3)ccc12 [Example 177, 1-(4-(3-fluoro-4-methylphenoxy)-2-methoxyphenyl)-N-4-pyrimidinyl-6-isoquinolinesulfonamide]
- IC50 ([2]; in-vitro PX (PatchXpress) data): > 10000 nM

- IC50 ([1]; in-vitro Nav 1.7 PX data): 171 nM
Molecule: COc1cc(Oc2ccccc2C)ccc1-c1nccc2cc(S(=O)(=O)Nc3ccncn3)ccc12 [Example 170, 1-(2-methoxy-4-(2-methylphenoxy)phenyl)-N-4-pyrimidinyl-6-isoquinolinesulfonamide]
- IC50 ([2]; in-vitro Nav 1.5 PX data): > 10000 nM

- IC50 ([1]; in-vitro PX (PatchXpress) data): 305 nM
Molecule: COc1ccc(Oc2ccc(-c3nccc4cc(S(=O)(=O)Nc5ccncn5)ccc34)c(OC)c2)cc1 [Example 182, 1-(2-methoxy-4-(4-methoxyphenoxy)phenyl)-N-4-pyrimidinyl-6-isoquinolinesulfonamide]
- IC50 ([2]; in-vitro PX (PatchXpress) data): > 10000 nM
